Source: patent US4935520A, “Compound, oleyl-2-pyridinioethyl phosphate having antifungal and antiprotozoal properties” (Takeda Chemical Industries, Ltd., priority 1982, dated 1990)
Read-outs that look alike come from different tables or passages of the source.

Columns and labels:
[1] = test system: Tetrahymena pyriformis W strain; test: Antiprotozoal activity, MIC; format: cell-based; details: broth dilution method, pH 7.0, 28° C., 44 to 48 hours; for MIC: Tetrahymena pyriformis, read-out: MIC against Tetrahymena pyriformis W strain
Protocol: The antiprotozoal activity values as shown in Table 4 were assayed using Tetrahymena pyriformis W strain as the test organism and an assay medium composed of 20 g of tryptose peptone (manufactured by Difco), 1 g of yeast extract, 2 g of glucose, 1000 ml of distilled water and 10 ml of 1M phosphate buffer (pH 7.0). The incubation was continued at 28° C. for 44 to 48 hours and the minimum inhibitory concentration (MIC) of the compounds of this invention was determined by the broth dilution method.

[2] = test system: sarcoma 180; test: Effects against sarcoma 180 (survival rate, ICR mice); format: in vivo; details: 1 mg per mouse i.p., four days before 1×10^5 cells of sarcoma 180 i.p.; vs physiological saline control
[3] = test system: Penicillium citrinum IFO-6352; test: Antifungal activity, MIC; format: cell-based
[4] = test system: MM46 carcinoma; test: Effects against MM46 (surviving mice, C3H/He mice); format: in vivo; details: 24th day after transplantation of 1×10^4 MM46 cells i.p.; 250 μg i.p., eight times in total
Protocol: To each of C3H/He mice group was transplanted intraperitoneally 1×10^4 cells of MM46 carcinoma. Four times from five days to two days before the transplantation and four times from two days to five days after the transplantation, eight times in total, 250 μg of the test compound dissolved in 0.2 ml of physiological saline was administered intraperitoneally. The number of mice surviving on the 24th day after transplantation of the carcinoma cells was compared with that of the control group administered with saline.

[5] = test system: Colletctrichum lagenarium IFO-6207; test: Antifungal activity, MIC; format: cell-based
[6] = test system: Gibberella fujiknroi; test: Antifungal activity, MIC; format: cell-based
[7] = test system: Botrytis cinerea IFO-5365; test: Antifungal activity, MIC; format: cell-based
[8] = test system: Saccharomyces cerevisiae IFO-0209; test: Antifungal activity, MIC; format: cell-based
[9] = test system: Aspergillus niger IFO-6341; test: Antifungal activity, MIC; format: cell-based; details: IFO6341, test organism 1, 1% glucose-bouillon agar medium, serial dilution method
Protocol: The antimycotic (antifungal) activity values as shown in Table 3 were assayed on various organisms including phytopathogenic microorganisms using 1% glucose-bouillon agar medium, and the minimum inhibitory concentration (MIC) was determined by the serial dilution method.

[10] = test system: Helminthosporium sigmoideum IFO-4867; test: Antifungal activity, MIC; format: cell-based; details: Nakataea oryzae, IFO4867
[11] = test system: Pyricularia oryzae IFO-5279; test: microbe, parasite or virus in culture; format: cell-based; details: IFO5279
[12] = test system: Helminthosporium oryzae IFO-7503; test: Antifungal activity, MIC; format: cell-based; details: Bipolaris oryzae, IFO7503
[13] = IFO6352, test organism 2, 1% glucose-bouillon agar medium, serial dilution method, read-out: MIC
[14] = test organism 9, 1% glucose-bouillon agar medium, serial dilution method, read-out: MIC
[15] = IFO5365, test organism 7, 1% glucose-bouillon agar medium, serial dilution method, read-out: MIC
[16] = IFO0209, test organism 3, 1% glucose-bouillon agar medium, serial dilution method, read-out: MIC
[17] = test organism 8, 1% glucose-bouillon agar medium, serial dilution method, read-out: MIC

| Compound | MIC [1] [µg/mL] | Survival Rate (T/C) [2] | MIC [3, 13] [µg/mL] | Surviving mice/Test mice [4] | MIC [5, 14] [µg/mL] | MIC [6] [µg/mL] | MIC [7, 15] [µg/mL] | MIC [8, 16] [µg/mL] | MIC [9] [µg/mL] | MIC [10] [µg/mL] | MIC [11] [µg/mL] | MIC [12] [µg/mL] | MIC [5] [µg/mL] | MIC ([7]; IFO5365) [µg/mL] | MIC ([8]; IFO0209) [µg/mL] | MIC [10, 17] [µg/mL] | MIC ([3]; IFO6352) [µg/mL] | MIC against Tetrahymena pyriformis W strain [1] [µg/mL] | MIC ([6]; test organism 6, 1% glucose-bouillon agar medium, serial dilution method, read-out: MIC) [µg/mL] |
| --- | --- | --- | --- | --- | --- | --- | --- | --- | --- | --- | --- | --- | --- | --- | --- | --- | --- | --- | --- |
| CCCCCCCCC(CCCCCCCC)OP(=O)([O-])OCC[N+](C)(C)C [Production Example 11, (1-Octyl)nonyl 2-trimethylammonioethyl phosphate] | ≤ 1 | 282 |  |  |  |  |  |  |  |  |  |  |  |  |  |  |  |  |  |
| CCCCCCCC/C=C\CCCCCCCCOP(=O)([O-])OCC[N+](C)(C)C [Production Example 3, Oleyl 2-trimethylammonioethyl phosphate] | 0.4 | 302 | 25 | 3/5 | 50 | 12.5 | 3.12 | 6.25 | 12.5 | 1.56 | 1.56 | 12.5 |  |  |  |  |  |  |  |
| CCCCCCCCCCCCCCCCCCCCCCOP(=O)([O-])OCC[N+](C)(C)C [Production Example 5, Docosyl trimethylammonioethyl phosphate] | > 4 | 167 |  |  |  |  |  |  |  |  |  |  |  |  |  |  |  |  |  |
| CCCCCCCCCCCCCCOP(=O)([O-])OCC[n+]1ccccc1 [Production Example 2, Tetradecyl 2-pyridinioethyl phosphate] | ≥ 4 | 152 | 12.5 |  |  | 25 |  |  | 25 |  | 3.12 | 25 | 3.12 | 50 | 50 | 12.5 |  |  |  |
| CCCCCCCCCCCCCCC/C=C/COP(=O)([O-])OCC[N+](C)(C)C [Production Example 10, (E)-2-Octadecenyl 2-trimethylammonioethyl phosphate] | ≤ 1 |  |  |  |  |  |  |  |  |  |  |  |  |  |  |  |  |  |  |
| CCCCCCCCCCCCCCCCCCOP(=O)([O-])OCC[N+](C)(C)C [Production Example 6, Stearyl 2-trimethylammonioethyl phosphate] | ≤ 1 | 200 |  |  | 100 | 50 |  |  | 25 | 3.12 | 6.25 | 50 |  | 6.25 | 12.5 |  | 25 |  |  |
| 2-Trimethylammonioethyl cetyl phosphonate [Production Example 8] |  |  |  |  |  |  |  |  |  |  |  |  |  |  |  |  |  | 2 |  |
| CCCCCCCCCCCCCCOP(=O)([O-])OCC[N+](C)(C)C [Production Example 1, Tetradecyl 2-trimethylammonioethyl phosphate] | 2 | 217 |  |  |  | 25 |  |  | 12.5 | 6.25 | 3.12 | 12.5 | 3.12 | 25 | 12.5 |  | 6.25 |  |  |
| CCCCCCCC/C=C\CCCCCCCCOP(=O)([O-])OCC[n+]1ccccc1 [Production Example 4, Oleyl 2-pyridinioethyl phosphate] |  | 308 | 25 | 2/5 |  |  | 6.25 | 25 | 50 |  | 3.12 | 50 | 50 |  |  | 6.25 |  |  | 25 |
| CC(C)CCCC(C)CCCC(C)CCCC(C)CCOP(=O)([O-])OCC[N+](C)(C)C (stereo not shown) [Production Example 7, 3,7,11,15-Tetramethylhexadecyl 2-trimethylammonioethyl phosphate] | 4 |  |  |  | 100 | 6.25 |  |  |  |  | 1.56 |  |  | 25 |  |  |  |  |  |
